Laboratory results taken from patent publication US9540381B2, “Anti-angiogenesis compound, intermediate and use thereof” (Guangzhou KangRui Biological Pharmaceutical Technology Co., …, priority 2013, dated 2017).

Legend:
[1] = test system: vessel development of the FLK1-GFP transgenic danio rerio; assay: Inhibition test on vascular development of Danio rerio; type: in vivo; conditions: for inhibition at 0.1 µM / inhibition at 1 µM / inhibition at 5 µM / inhibition at 10 µM / inhibition at 20 µM / inhibition at 40 µM / inhibition at 100 µM: Danio rerio, after 24 hours, n = 5, read-out: inhibition rate on the development of vertebral vessel; for inhibition at 0.1 µM: 100 nM; for inhibition effect on the vessel development of the danio rerio (in words): Table 1 and FIG. 7
Description: Female fish can spawn 200-300 […], and the fertilization and embryonic development processes are conducted in vitro. They can grow up within 24 hours, and the embryo is transparent, which is suitable for observing the change of intracorporal organs and tissues. These characteristics make the danio rerio become to be one of the five fish laboratory animals accepted by the international organization for standardization. Currently, the danio rerio is widely used in human disease studies, especially used in cardiovascular system studies. The danio rerio can be used for screening the influence of small molecular compounds on angiogenesis. Experimental Method: This experiment uses FLK1-GFP transgenic danio rerio as an animal model which is generally used for screening the influence of compounds on angiogenesis. Vessel can be in vivo observed under fluorescence microscope (Suk-Won Jin, 2005, Development). The selected embryo of the postnatal FLK1-GFP transgenic danio rerio was placed into a culture dish and incubated for 3-5 days in an incubator at 28° C. […] Examine the developmental condition of the vertebral vessel after 24 hours and take photo by use of the fluorescence microscope.

VEGFR2 = biological target: T1, VEGFR2 (Homo sapiens, UniProt P35968); assay: In vitro inhibition test on VEGFR2 in HUVECs (anti-phosphorylated VEGFR2 blot); type: cell-based; conditions: 10 nM, 100 nM and 1 μM, 50 ng/ml VEGF
T1 construct: endogenous in cells; host or cells: primary HUVECs P3-P5
Description: The experimental method of detecting the inhibition of the compounds of the present invention on VEGFR2 kinase is as follows:
1) The primary cultured human umbilical vein endothelial cells (HUVECs) P3-P5 were transferred to 6 well plate, 2×10^5 cells per well;
2) compounds 2-1, 2-2 and 2-4 of the present invention (the concentrations are 10 nM, 100 nM and 1 μM for each compound) were added when the cells grow to 70-80%, VEGF was a control, incubation for 30 min;
3) 50 ng/ml VEGF (cell Signaling company, US) was added, stimulating for 10 min;
4) nondenature lysis buffer was added to terminate the reaction, and cell lysis buffer was collected to carry out protein quantification;
5) SDS-PAGE electrophoresis, transfer to nitrocellulose membrane, the membrane was cut off and sealed in phosphate tween buffer, TTBS buffer (Tris-buffered saline 0.01% Tween 20, cell Signaling company, US, PH8.0) formulated from 5% skimmed milk for 2 hours; 6) wash the membrane, seal at 4° C. overnight by use of an anti-phosphorylated VEGFR2 antibody (1:1000 dilution, cell Signaling company, US); 7) on the second day after washing membrane, horse radish peroxidase marked goat anti-rabbit second antibody (cell Signaling company, US) was incubated with the membrane at room temperature for 1 hour; 8) develop with chemiluminescence kit (Millipore company) after washing membrane, and take photos.

T1 sequence (P35968 20-1356): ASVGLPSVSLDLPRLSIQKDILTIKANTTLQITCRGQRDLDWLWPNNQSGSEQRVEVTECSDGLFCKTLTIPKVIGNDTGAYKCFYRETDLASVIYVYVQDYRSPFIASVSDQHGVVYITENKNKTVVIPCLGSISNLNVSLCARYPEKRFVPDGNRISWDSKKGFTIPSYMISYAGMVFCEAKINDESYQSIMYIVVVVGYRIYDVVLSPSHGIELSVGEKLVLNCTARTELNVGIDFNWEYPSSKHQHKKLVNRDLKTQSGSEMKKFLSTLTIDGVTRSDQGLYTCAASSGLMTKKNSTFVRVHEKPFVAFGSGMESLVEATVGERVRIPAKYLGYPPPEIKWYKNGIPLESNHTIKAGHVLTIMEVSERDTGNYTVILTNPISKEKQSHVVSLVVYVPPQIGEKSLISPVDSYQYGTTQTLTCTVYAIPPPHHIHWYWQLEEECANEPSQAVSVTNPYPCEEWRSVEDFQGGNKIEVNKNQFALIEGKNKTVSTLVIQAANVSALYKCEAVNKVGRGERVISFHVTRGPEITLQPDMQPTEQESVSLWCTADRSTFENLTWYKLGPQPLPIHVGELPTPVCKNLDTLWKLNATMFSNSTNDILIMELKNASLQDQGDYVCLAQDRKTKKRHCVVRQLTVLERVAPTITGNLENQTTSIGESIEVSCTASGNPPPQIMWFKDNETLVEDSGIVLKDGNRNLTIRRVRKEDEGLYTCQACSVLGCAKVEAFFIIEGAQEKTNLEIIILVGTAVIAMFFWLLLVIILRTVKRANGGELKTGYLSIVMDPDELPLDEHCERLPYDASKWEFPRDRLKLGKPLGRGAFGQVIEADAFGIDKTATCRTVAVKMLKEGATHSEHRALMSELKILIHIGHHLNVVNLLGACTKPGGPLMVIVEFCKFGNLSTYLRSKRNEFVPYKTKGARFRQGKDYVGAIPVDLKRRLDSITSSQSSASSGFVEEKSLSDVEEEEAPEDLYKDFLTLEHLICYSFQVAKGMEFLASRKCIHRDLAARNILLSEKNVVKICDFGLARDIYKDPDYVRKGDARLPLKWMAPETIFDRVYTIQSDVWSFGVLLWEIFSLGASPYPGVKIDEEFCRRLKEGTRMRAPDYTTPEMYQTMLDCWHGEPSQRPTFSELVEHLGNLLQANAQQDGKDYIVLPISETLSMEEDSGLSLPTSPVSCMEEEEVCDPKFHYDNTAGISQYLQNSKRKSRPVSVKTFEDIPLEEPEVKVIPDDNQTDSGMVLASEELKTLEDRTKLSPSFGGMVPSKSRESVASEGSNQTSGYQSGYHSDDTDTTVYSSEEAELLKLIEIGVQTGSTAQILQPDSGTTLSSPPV

inhibition of VEGFR2 (in words, FIG. 8) (VEGFR2) | Structure (SMILES) | inhibition at 0.1 µM [1] | inhibition at 1 µM [1] | inhibition at 5 µM [1] | inhibition at 10 µM [1] | inhibition at 20 µM [1] | inhibition at 40 µM [1] | inhibition at 100 µM [1] | inhibition effect on the vessel development of the danio rerio (in words) [1]
can inhibit VEGFR2 | CNCc1cc(Oc2ccc3c(C(=O)Nc4cccc(C(F)(F)F)c4)cccc3n2)ncn1 [Compound 2-4] | 0% | 0% | 0% | 0% | 5% | 25% | 70% | have inhibition effect on the vessel development of the danio rerio
 | O=C(Nc1cccc(C(F)(F)F)c1)c1cccc2nc(Oc3ncnc4c3CNC4)ccc12 [Compound 2-5] | 0% | 0% | 10% | 40% | 80% | 100% | 100% | have inhibition effect on the vessel development of the danio rerio
 | Cc1ccc(Nc2nccc(N(C)c3ccc4c(C)n(C)nc4c3)n2)cc1S(N)(=O)=O [Compound 130B, Pazopanib, reference compound] | 0% | 0% | 85% | 90% | 95% | 95% | 100% | 
 | O=C(Nc1cccc(C(F)(F)F)c1)c1cccc2nc(Oc3ncnc4c3CCNC4)ccc12 [Compound 2-3] | 0% | 0% | 0% | 0% | 0% | 5% | 20% | have inhibition effect on the vessel development of the danio rerio
